Entries after “also recorded” stand apart in the source; their conditions may differ.
Tests used:
activated LX-2 cells [1] = experiment: Metronomic therapy of activated-LX-2 cells: morphology / phenotype; type: cell-based, human; settings: for change in morphology / phenotype of aLX-2 cells: monotherapy, metronomic: 3-BrPA 25 μM or AICAR 0.5 mM
Excerpt: LX-2, a human stellate cell line, was a gift of Dr. Scott L. Friedman from the Mount Sinai School of Medicine (New York, N.Y., USA). The LX-2 cells when cultured on plastic are active in fibrogenesis (Gaca et al., 2003), and these activated LX-2 cells were used in most experiments. De-activated (quiescent) LX-2 cells prepared by culturing the LX-2 cells on Matrigel (Gaca et al., 2003; Sohara et al., 2002; Troeger et al., 2012) were used as controls. The activated and de-activated LX-2 cells were then cultured in Dulbecco's Modified Eagle's Medium (DMEM) containing 10% FBS, 0.1% antibiotic (Penicillin-Streptomycin) and 0.1% Fungizone on plastic as described previously (Tang et al., 2003). Rat hepatic stellate cells were
(§1) To analyze the effect of 3-BrPA on activated-LX-2 cells, the principle of metronomic therapy, a repeated but low, nonlethal dose of 3-BrPA ([…]) was adopted. A known number of cells were plated in 6-well plates, 10 cm petri dishes or chamber slides as required and the culture media was replaced with fresh culture media containing the drug(s) on alternative days. The cells were treated for a period of 13 days for immunofluorescence studies and 6 days for all other studies including biochemical analysis. Monotherapy involved treating the cells with 3-BrPA alone or AICAR (0.5 mM) in DMEM with 2.5% FBS. The concentration of AICAR was chosen based on the prior reports (Lim et al., 2012). Combination therapy involved using half of the dose used for the monotherapy of AICAR and 3-BrPA.

[2] = test system: rat hepatic stellate cells; experiment: Fibrotic markers in rat hepatic stellate cells (confocal α-SMA, MMP-9 immunoblot); type: cell-based
Excerpt: (§2) isolated and cultured as described previously (Anania et al., 1996). Human primary hepatocytes were obtained from Invitrogen and cultured in William's medium (without phenol red) along with plating and maintenance supplements.
The level of MMP activity in the conditioned medium of control and treated LX-2 cells and/or rat HSCs was quantified by gelatin zymography. In brief, upon the completion of drug treatment protocol, media from both control and treated cells were removed, cells were rinsed with PBS and replaced with serum-free DMEM media and cultured overnight at 37° C. prior to the collection of media containing secreted proteins for further analysis. The media thus collected were concentrated using a 3000 Da centrifugal filter (Amicon Inc., Pineville, N.C., USA) at 2500 rpm for 30 minutes at 4° C. and then stored at −80° C. until further analysis. Protein (˜10 μg) samples from the conditioned media of control and treated cells were subjected to zymography as described (Kunjithapatham et al., 2014). The MMP activity was visualized as clear bands. The identity of the MMP associated with zymogram signal (activity) was verified by immunoblot analysis.

activated LX-2 cells [3] = experiment: Collagen staining (trichrome) and collagen mRNA by qRT-PCR; type: cell-based, human; settings: aLX-2 cells
Experimental: Gene expression analysis was performed by using qRT-PCR with a sequence detection system (ABI 7900HT; Applied Biosystems, Bedford, Mass., USA). The total RNA was extracted and the cDNA thus synthesized were subjected to qRT-PCR analysis using SYBR Green PCR Kit (Applied Biosystems) for genes associated with invasiveness and motility like Vimentin (VIM), Cadherin-12 (CDH12), Snail (SNAI1), Transgelin (TGN) (31-33) and TaqMan PCR Kit for Coll1α (Mm 00801666_g1). The primers used for respective gene amplification were synthesized by RealTimePrimers.com (Elkins Park, Pa., USA) or Life Technologies (Coll1α): […]
Tissue sections were deparaffinized in xylene followed by rehydration through graded series of alcohol followed by staining for collagen using Masson's Trichrome stain (Sigma Aldrich, St. Louis, Mo.) or Sirius Red stain (PolySciences. Inc Warrington, Pa.). For in vitro studies, the LX-2 cells were grown in chamber slides containing appropriate growth medium. They were fixed with 4% formaldehyde for 10 minutes, rapidly rehydrated with Phosphate-buffered saline (PBS), following which, the staining was performed.

activated LX-2 cells [4] = experiment: Gelatin zymography for MMP activity in conditioned medium, verified by immunoblot; type: cell-based, human; settings: aLX-2 cells, zymogram and immunoblots
Experimental: as §1
The level of MMP activity in the conditioned medium of control and treated LX-2 cells and/or rat HSCs was quantified by gelatin zymography. In brief, upon the completion of drug treatment protocol, media from both control and treated cells were removed, cells were rinsed with PBS and replaced with serum-free DMEM media and cultured overnight at 37° C. prior to the collection of media containing secreted proteins for further analysis. […]

[5] = test system: human primary hepatocytes; experiment: Morphology and cell viability of human primary hepatocytes at the metronomic dose; type: cell-based
Experimental: as §2, §1

activated-LX-2 cells = experiment: Determination of nontoxic maximum tolerated dose (cell viability, Trypan-blue exclusion or intracellular ATP); type: cell-based, human; settings: maximum dose allowing more than 50% survival; 5-50 μM tested for 24, 48 and 72 hours
Experimental: To determine the nonlethal, maximum tolerated dose (MTD) of 3-BrPA for activated-LX-2 cells, the cell viability was assessed using either Trypan-blue exclusion or quantification of intracellular ATP level. The later was performed using the Cell-Titer Glo Assay kit (Promega Corp., Madison, Wis.) and the FLUOstar Omega plate reader (BMG Labtech, UK). In brief, cells plated in 96-well flatbottomed opaque plates were treated with different concentrations of 3-BrPA (5 μM, 10 μM, 25 μM and 50 μM) for 24, 48 and 72 hours followed by the quantification of intracellular ATP. The maximum dose of 3-BrPA that allowed more than 50% survival (a concentration <IC50) was selected for further experiments.

activated LX-2 cells [6] = experiment: Energy metabolism markers (immunofluorescence, immunoblot, lactate secretion); type: cell-based, human; settings: aLX-2 cells
Experimental: as §1
LX-2 cells were grown in chamber slides in the same media used for culture. They were fixed with 4% formaldehyde for 10 minutes, rapidly rehydrated with Phosphate-buffered saline (PBS) and permeabilized with a 0.20% Triton X-100 solution in PBS for imaging of MCT-1, MCT-4 and ATPSE. The cells were incubated with primary antibodies in PBS for 1 hour at room temperature in a humidified chamber. They were then washed and incubated at room temperature with secondary antibody labeled with Texas Red
For western blotting, control and treated cells were washed in PBS, lysed in RIPA lysis buffer (Sigma-Aldrich) with a protease inhibitor cocktail and a phosphatase inhibitor cocktails (both from Sigma-Aldrich) at 4° C. using a dounce homogenizer. The lysates were centrifuged at 12,000×g for 15 min at 4° C. to remove any cell debris. The clear supernatants were collected and the protein concentrations were analyzed using a 2-D Quant protein assay Kit (GE Healthcare) as described (Ganapathy-Kanniappan et al., 2009a). In brief, protein samples were resolved on a 4-12% Bis-Tris gel by electrophoresis with MOPS buffer or via 12% Bis-Tris gel electrophoresis with MES running buffer (for low molecular weight targets) and blotted onto PVDF membranes (BioRad, Hercules, Calif., USA) followed by immunoblotting with specific antibodies. Immune complexes were visualized by ECL-detection kit (GE Health Care).

activated LX-2 cells [7] = experiment: Immunofluorescence / immunoblot of profibrogenic markers (α-SMA, CK-18); type: cell-based, human; settings: aLX-2 cells
Experimental: as §1
LX-2 cells were grown in chamber slides in the same media used for culture. […]
For western blotting, control and treated cells were washed in PBS, lysed in RIPA lysis buffer (Sigma-Aldrich) with a protease inhibitor cocktail and a phosphatase inhibitor cocktails (both from Sigma-Aldrich) at 4° C. using a dounce homogenizer. […] The clear supernatants were collected and the protein concentrations were analyzed using a 2-D Quant protein assay Kit (GE Healthcare) as described (Ganapathy-Kanniappan et al., 2009a). […]

| Structure (SMILES) | change in morphology / phenotype of aLX-2 cells (activated LX-2 cells [1]) | α-SMA in rat hepatic stellate cells ([2]; confocal microscopic images) | secretion of MMP-9 in rat hepatic stellate cells ([2]; immunoblot) | α1 (I) collagen mRNA (activated LX-2 cells [3]) | collagen (trichrome staining) (activated LX-2 cells [3]; text says liver collagen) | toxicity to mouse hepatocytes (mouse hepatocytes) | secretion of MMPs (MMP-2, MMP-9) (activated LX-2 cells [4]) | sensitivity / cell viability / toxicity, human primary hepatocytes ([5]; 3-BrPA 25 μM, in vitro) | morphological change of human primary hepatocytes ([5]; same metronomic dose (25 μM)) | stability of phenotypic changes after withdrawal of the drug (activated LX-2 cells [1]; aLX-2 cells, 6 days post-treatment) | change in morphology of aLX-2 cells in the presence of AICAR (activated LX-2 cells [1]; combination of 3-BrPA and AICAR, half of the monotherapy doses) | MTD (nonlethal, maximum tolerated dose) in aLX-2 cells (activated-LX-2 cells) [µM] | expression level of lactate transporter MCT-4 (activated LX-2 cells [6]) | expression of ATPSE (F1-F0 ATPase) (activated LX-2 cells [6]) | expression of MCT-1 (activated LX-2 cells [6]) | level of lactate secretion (activated LX-2 cells [6]) | expression level of lactate dehydrogenase (LDH) (activated LX-2 cells [6]; immunoblot) | level of CK-18 (activated LX-2 cells [7]; immunofluorescence) | level of α-SMA (activated LX-2 cells [7]; immunofluorescence and immunoblot) |
| --- | --- | --- | --- | --- | --- | --- | --- | --- | --- | --- | --- | --- | --- | --- | --- | --- | --- | --- | --- |
| NC(=O)c1ncn([C@@H]2O[C@H](CO)[C@@H](O)[C@H]2O)c1N [AICAR, reference compound] | did not induce any change in morphology | – | – | – | – | – | – | – | – | – | – | – | – | – | – | – | – | – | – |
| O=C(O)C(=O)CBr [3-BrPA, 3-bromopyruvate] | induced changes in phenotype including an elongated, spindle-shaped morphology | decrease | increase | decreased | decreased | not toxic | elevated | not sensitive; also recorded: not toxic; also recorded: remained unaffected | did not under go any morphological change | stable, even after withdrawal of the drug | promoted the changes even in the presence of AICAR | 25 | increased | significantly downregulated | unaffected | increased | increased | prominent decrease | reduced |

Source: US11241402B2, “Methods of treating liver fibrosis by administering 3-bromopyruvate” (The Johns Hopkins University, priority 2015, dated 2022)
